Data reported in patent US9668948B2, “Products and methods for reducing malodor from the pudendum” (priority 2009, dated 2017).

Experiments:
[1] = 1 gram in ... ml of water; 25° C.; cited from earlier work
Clostridium sporogenes = test: Suppression of trimethylamine (TMA) formation from choline by bacterial culture, headspace GC/FID; format: cell-based; conditions: added to the culture solution (internal standard mix)
Protocol: A viable method was developed for the assay of trimethylamine (TMA). The method utilizes triethylamine and methanol together as internal standards and choline as the substrate for generating TMA from the bacterial species. The bacterial culture for these studies was Clostridium sporogenes, which was grown in house at BioScreen.
Tests were conducted with a headspace gas chromatograph to verify that Clostridium sporogenes bacterial could actively generating trimethylamine from a choline substrate.
Equipment for the testing included a Trace GC Ultra gas chormoatograph and a Varian CP-Volamine column. An FID detector was used with 2.5 mL/min helium flow.
The bacterial species C. sporogenes, a species found in the lower GI tract. was inoculated into 100 mL of Fluid Thioglycolate medium and incubated at 35±2° C. for a minimum of 16 hours. At the end of incubation, the concentration of the bacterial suspension was confirmed by serial dilution in 9 mL PBS up to 10^−7 and anaerobic incubation at 32.5±2.5° C. for a minimum of 48 hours. Counts were recorded from dilution plates with 25 to 250 colonies. The average counts were multiplied by the reciprocal of the dilution factor to furnish the CFU/mL of the bacterial species. […]

| Compound | solubility in water: ml of water for 1 gram [1] [mL] | effect on reactivity of the bacterial culture with choline (Clostridium sporogenes) |
| --- | --- | --- |
| O=C(O)C(O)c1ccccc1 (centres unmarked) [mandelic acid] | 6.3 | – |
| benzalkonium chloride | – | stops further reactivity |
